# Reference: patent publication US12065399B2, “Arylsulfonamide derivatives” (Hoffmann-La Roche Inc., priority 2019, dated 2024)
# Target: human mGlu4 receptor (Homo sapiens (Human), UniProt Q14833)
# Experiment: Intracellular Ca2+ mobilization assay (FLIPR), mGlu4 NAM
# Format: cell-based
# Settings: HEK-293 cells stably transfected with human mGlu4; inhibition of L-AP4 (EC80) response; IC50
# Method: 2.1) Intracellular Ca^2+ Mobilization Assay (FLIPR)
# A monoclonal HEK-293 cell line stably transfected with a cDNA encoding for the human mGlu4 receptor was generated. Cells were cultured according to standard protocols (Freshney, 2000) in Dulbecco's Modified Eagle Medium with high glucose supplemented with 1 mM glutamine, 10% (vol/vol) heat-inactivated bovine calf serum, penicillin/streptomycin, 50 μg/ml hygromycin and 15 μg/ml blasticidin (all cell culture reagents and antibiotics from Invitrogen, Basel, Switzerland).
# About 24 hrs before an experiment, 5×10^4 cells/well were seeded in poly-D-lysine coated, black/clear-bottomed 96-well plates. The cells were loaded with 2.5 μM Fluo-4AM in loading buffer (1×HBSS, 20 mM HEPES) for 1 hr at 37° C. and washed five times with loading buffer. The cells were transferred into a Functional Drug Screening System 7000 (Hamamatsu, Paris, France), and 11 half logarithmic serial dilutions of test compound at 37° C. were added and the cells were incubated for 10-30 min. with on-line recording of fluorescence. Following this pre-incubation step, the agonist (2S)-2-amino-4-phosphonobutanoic acid (L-AP4) was added to the cells at a concentration corresponding to EC80 with on-line recording of fluorescence; in order to account for day-to-day variations in the responsiveness of cells, the EC80 of L-AP4 was determined immediately ahead of each experiment by recording of a full dose-response curve of L-AP4.
# Responses were measured as peak increase in fluorescence minus basal (i.e. fluorescence without addition of L-AP4), normalized to the maximal stimulatory effect obtained with saturating concentrations of L-AP4. Graphs were plotted with the % maximal stimulatory using XLfit, a curve fitting program that iteratively plots the data using Levenburg Marquardt algorithm. The single site competition analysis equation used was y=A+((B-A)/(1+((x/C)D))), where y is the % maximal stimulatory effect, A is the minimum y, B is the maximum y, C is the IC50, x is the log 10 of the concentration of the competing compound and D is the slope of the curve (the Hill Coefficient). From these curves the IC50 (drug concentration at which 50% of the receptor activation achieved from the addition of L-AP4 in the experiment was inhibited), the Hill coefficient as well as the maximal response in % of the maximal stimulatory effect obtained with saturating concentrations of L-AP4 were calculated (see FIG. 1).
# Chain of human mGlu4 receptor (Q14833 33-912): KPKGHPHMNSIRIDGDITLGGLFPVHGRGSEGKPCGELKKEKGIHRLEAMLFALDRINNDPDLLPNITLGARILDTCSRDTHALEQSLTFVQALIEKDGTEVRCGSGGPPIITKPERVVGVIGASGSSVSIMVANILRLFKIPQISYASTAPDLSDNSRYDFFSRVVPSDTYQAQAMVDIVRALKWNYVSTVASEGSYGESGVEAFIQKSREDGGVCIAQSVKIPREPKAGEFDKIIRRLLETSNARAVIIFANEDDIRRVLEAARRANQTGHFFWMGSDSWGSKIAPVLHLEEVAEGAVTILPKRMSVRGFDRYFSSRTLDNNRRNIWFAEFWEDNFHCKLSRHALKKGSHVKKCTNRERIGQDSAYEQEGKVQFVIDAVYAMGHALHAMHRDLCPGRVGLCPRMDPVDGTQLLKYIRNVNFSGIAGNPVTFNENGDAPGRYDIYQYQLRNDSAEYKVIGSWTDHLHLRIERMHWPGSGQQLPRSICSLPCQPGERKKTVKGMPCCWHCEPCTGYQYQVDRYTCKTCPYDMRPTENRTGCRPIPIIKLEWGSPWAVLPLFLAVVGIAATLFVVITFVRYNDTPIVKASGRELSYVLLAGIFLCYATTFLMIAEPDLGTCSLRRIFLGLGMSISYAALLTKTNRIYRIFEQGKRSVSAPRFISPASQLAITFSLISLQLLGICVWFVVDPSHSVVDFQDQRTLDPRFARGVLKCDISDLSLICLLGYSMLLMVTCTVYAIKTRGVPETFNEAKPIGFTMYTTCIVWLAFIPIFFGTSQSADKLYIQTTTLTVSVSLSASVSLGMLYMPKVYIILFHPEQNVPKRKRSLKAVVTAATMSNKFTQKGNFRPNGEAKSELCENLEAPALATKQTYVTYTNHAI
row,SMILES,EC50 [nM]
1,"O=S(=O)(Nc1c(F)cc(C#Cc2ccccc2)cc1F)c1ccccc1Cl [Example 1, 2-chloro-N-[2,6-difluoro-4-(2-phenylethynyl)phenyl]benzenesulfonamide]",4280
2,"O=S(=O)(Nc1c(F)cc(C#Cc2ccccc2)cc1F)c1cccc(Cl)c1Cl [Example 2, 2,3-dichloro-N-[2,6-difluoro-4-(2-phenylethynyl)phenyl]benzenesulfonamide]",1680
3,"O=S(=O)(Nc1c(F)cc(C#Cc2ccccc2)cc1F)c1ccccc1C(F)(F)F [Example 3, N-[2,6-difluoro-4-(2-phenylethynyl)phenyl]-2-(trifluoromethyl)benzenesulfonamide]",2810
4,"O=S(=O)(Nc1c(F)cc(C#Cc2ccccc2)cc1F)c1cc(Cl)ccc1Cl [Example 4, 2,5-dichloro-N-[2,6-difluoro-4-(2-phenylethynyl)phenyl]benzenesulfonamide]",3430
5,"Cc1ccccc1S(=O)(=O)Nc1c(F)cc(C#Cc2ccccc2)cc1F [Example 5, N-[2,6-difluoro-4-(2-phenylethynyl)phenyl]-2-methyl-benzenesulfonamide]",3720
6,"O=S(=O)(Nc1c(F)cc(C#Cc2ccccc2)cc1F)c1ccccc1F [Example 6, N-[2,6-difluoro-4-(2-phenylethynyl)phenyl]-2-fluoro-benzenesulfonamide]",4640
7,"O=S(=O)(Nc1c(F)cc(C#Cc2ccccc2)cc1F)c1cccnc1 [Example 7, N-[2,6-difluoro-4-(2-phenylethynyl)phenyl]pyridine-3-sulfonamide]",4670
8,"O=S(=O)(Nc1c(F)cc(C#Cc2ccccc2)cc1F)c1cccc(Cl)c1 [Example 8, 3-chloro-N-[2,6-difluoro-4-(2-phenylethynyl)phenyl]benzenesulfonamide]",5920
9,"O=S(=O)(Nc1c(F)cc(C#Cc2cccnc2)cc1F)c1ccccc1Cl [Example 9, 2-chloro-N-[2,6-difluoro-4-[2-(3-pyridyl)ethynyl]phenyl]benzenesulfonamide]",14200
10,"O=S(=O)(Nc1c(F)cc(C#Cc2ccccc2)cc1F)c1ccccn1 [Example 10, N-[2,6-difluoro-4-(2-phenylethynyl)phenyl]pyridine-2-sulfonamide]",14300
11,"O=S(=O)(Nc1c(F)cc(C#Cc2ccccc2)cc1F)c1ccc(Cl)cc1Cl [Example 11, 2,4-dichloro-N-[2,6-difluoro-4-(2-phenylethynyl)phenyl]benzenesulfonamide]",15700
12,"O=S(=O)(Nc1c(F)cc(C#Cc2cncc(F)c2)cc1F)c1ccccc1Cl [Example 12, 2-chloro-N-[2,6-difluoro-4-[2-(5-fluoro-3-pyridyl)ethynyl]phenyl]benzenesulfonamide]",2960
13,"O=S(=O)(Nc1c(F)cc(C#Cc2cncc(F)c2)cc1F)c1cccc(Cl)c1Cl [Example 13, 2,3-dichloro-N-[2,6-difluoro-4-[2-(5-fluoro-3-pyridyl)ethynyl]phenyl]benzenesulfonamide]",556
14,"O=S(=O)(Nc1c(F)cc(C#Cc2cncc(F)c2)cc1F)c1cccc(Cl)c1 [Example 14, 3-chloro-N-[2,6-difluoro-4-[2-(5-fluoro-3-pyridyl)ethynyl]phenyl]benzenesulfonamide]",1050
15,"COc1c(Cl)cccc1S(=O)(=O)Nc1c(F)cc(C#Cc2cncc(F)c2)cc1F [Example 15, 3-chloro-N-[2,6-difluoro-4-[2-(5-fluoro-3-pyridyl)ethynyl]phenyl]-2-methoxy-benzenesulfonamide]",778
16,"Cc1cccc(S(=O)(=O)Nc2c(F)cc(C#Cc3ccccc3)cc2F)c1Cl [Example 16, 2-chloro-N-[2,6-difluoro-4-(2-phenylethynyl)phenyl]-3-methyl-benzenesulfonamide]",1560
17,"O=S(=O)(Nc1c(F)cc(C#Cc2ccccc2)cc1F)c1cccc(F)c1Cl [Example 17, 2-chloro-N-[2,6-difluoro-4-(2-phenylethynyl)phenyl]-3-fluoro-benzenesulfonamide]",734
18,"COc1ccc(Cl)c(S(=O)(=O)Nc2c(F)cc(C#Cc3ccccc3)cc2F)c1 [Example 18, 2-chloro-N-[2,6-difluoro-4-(2-phenylethynyl)phenyl]-5-methoxy-benzenesulfonamide]",3940
19,"Cc1ccc(Cl)c(S(=O)(=O)Nc2c(F)cc(C#Cc3ccccc3)cc2F)c1 [Example 19, 2-chloro-N-[2,6-difluoro-4-(2-phenylethynyl)phenyl]-5-methyl-benzenesulfonamide]",1260

row,SMILES,EC50 [nM]
1,"Cc1c(Cl)cccc1S(=O)(=O)Nc1c(F)cc(C#Cc2ccccc2)cc1F [Example 20, 3-chloro-N-[2,6-difluoro-4-(2-phenylethynyl)phenyl]-2-methyl-benzenesulfonamide]",1080
2,"O=S(=O)(Nc1c(F)cc(C#Cc2ccccc2)cc1F)c1cccc(Cl)c1C(F)(F)F [Example 21, 3-chloro-N-[2,6-difluoro-4-(2-phenylethynyl)phenyl]-2-(trifluoromethyl)benzenesulfonamide]",15300
3,"O=S(=O)(Nc1c(F)cc(C#Cc2ccccc2)cc1F)c1cccnc1Cl [Example 22, 2-chloro-N-[2,6-difluoro-4-(2-phenylethynyl)phenyl]pyridine-3-sulfonamide]",4330
4,"O=S(=O)(Nc1c(F)cc(C#Cc2ccccc2)cc1F)c1cncc(Cl)c1 [Example 23, 5-chloro-N-[2,6-difluoro-4-(2-phenylethynyl)phenyl]pyridine-3-sulfonamide]",3110
5,"O=S(=O)(Nc1c(F)cc(C#Cc2ccccc2)cc1F)c1cncc(F)c1 [Example 24, N-[2,6-difluoro-4-(2-phenylethynyl)phenyl]-5-fluoropyridine-3-sulfonamide]",2050
6,"Cn1nccc1S(=O)(=O)Nc1c(F)cc(C#Cc2ccccc2)cc1F [Example 25, N-[2,6-difluoro-4-(2-phenylethynyl)phenyl]-1-methyl-1H-pyrazole-5-sulfonamide]",1060
7,"Cn1ccc(S(=O)(=O)Nc2c(F)cc(C#Cc3ccccc3)cc2F)n1 [Example 26, N-[2,6-difluoro-4-(2-phenylethynyl)phenyl]-1-methyl-pyrazole-3-sulfonamide]",16000
8,"COc1cccc(S(=O)(=O)Nc2c(F)cc(C#Cc3ccccc3)cc2F)c1Cl [Example 27, 2-chloro-N-[2,6-difluoro-4-(2-phenylethynyl)phenyl]-3-methoxy-benzenesulfonamide]",8430
9,"Cc1c(C(F)(F)F)cccc1S(=O)(=O)Nc1c(F)cc(C#Cc2ccccc2)cc1F [Example 28, N-[2,6-difluoro-4-(2-phenylethynyl)phenyl]-2-methyl-3-(trifluoromethyl)benzenesulfonamide]",1950
10,"Cc1ncccc1S(=O)(=O)Nc1c(F)cc(C#Cc2ccccc2)cc1F [Example 29, N-[2,6-difluoro-4-(2-phenylethynyl)phenyl]-2-methyl-pyridine-3-sulfonamide]",2890
11,"Cc1ccc(C)c(S(=O)(=O)Nc2c(F)cc(C#Cc3ccccc3)cc2F)c1 [Example 30, N-[2,6-difluoro-4-(2-phenylethynyl)phenyl]-2,5-dimethyl-benzenesulfonamide]",1340
12,"Cc1ccncc1S(=O)(=O)Nc1c(F)cc(C#Cc2ccccc2)cc1F [Example 31, N-[2,6-difluoro-4-(2-phenylethynyl)phenyl]-4-methyl-pyridine-3-sulfonamide]",1400
13,"COCc1c(Cl)cccc1S(=O)(=O)Nc1c(F)cc(C#Cc2ccccc2)cc1F [Example 32, 3-chloro-N-[2,6-difluoro-4-(2-phenylethynyl)phenyl]-2-(methoxymethyl)benzenesulfonamide]",3880
14,"O=S(=O)(Nc1c(F)cc(C#Cc2ccccc2)cc1F)c1cccc(C(F)(F)F)c1Cl [Example 33, 2-chloro-N-[2,6-difluoro-4-(2-phenylethynyl)phenyl]-3-(trifluoromethyl)benzenesulfonamide]",2080
15,"O=S(=O)(Nc1c(F)cc(C#Cc2ccccc2)cc1F)c1cccc2ncoc12 [Example 34, N-[2,6-difluoro-4-(2-phenylethynyl)phenyl]-1,3-benzoxazole-7-sulfonamide]",6560
16,"O=S(=O)(Nc1c(F)cc(C#Cc2ccccc2)cc1F)c1cccc(Cl)c1F [Example 35, 3-chloro-N-[2,6-difluoro-4-(2-phenylethynyl)phenyl]-2-fluoro-benzenesulfonamide]",1610
17,"Cc1cccc(S(=O)(=O)Nc2c(F)cc(C#Cc3ccccc3)cc2F)c1 [Example 36, N-[2,6-difluoro-4-(2-phenylethynyl)phenyl]-3-methyl-benzenesulfonamide]",5020
18,"Cc1c(F)cccc1S(=O)(=O)Nc1c(F)cc(C#Cc2ccccc2)cc1F [Example 37, N-[2,6-difluoro-4-(2-phenylethynyl)phenyl]-3-fluoro-2-methyl-benzenesulfonamide]",1050
